Assay results reported in patent US20220160721A1, “METHODS OF TREATING CANCER” (Epizyme, Inc., priority 2016, published 2022).

Columns and labels:
Oral bioavailability = conditions: in vivo
Bin-67 xenografts = test: In vivo efficacy study, Bin-67 xenograft; set-up: species or system BALB/c nude mice; conditions: day 18
Procedure: (§1) In vivo efficacy studies: For the in vivo efficacy studies, there were 10 mice per dose group and each mouse was inoculated subcutaneously at the right flank. All cells were suspended in a 0.2 mL mixture of base media and Matrigel at 1:1 for tumor development. Bin-67 cells were inoculated at 5×10^6 cells/mouse and treatment began when the mean tumor sizes reached 146.08 mm^3 (28 days post-inoculation). COV434 cells were inoculated at 1×10^7 cells/mouse and treatment began when mean tumor sizes reached 158.88 mm^3 (20 days post-inoculation). TOV112D cells were inoculated at 5×10^6 cells/mouse and treatment began when the mean tumor size reached 128.13 mm^3 (day 14 post inoculation). Mice were assigned into groups using a randomized block design. […] Body weights were measured twice a week for the duration of the study. Tumor size was measured twice weekly in two dimensions using a caliper, and the volume was expressed in cubic millimeters. Animals were euthanized 3 hours post-final dose, with blood and tissues collected for analysis.

TOV112D xenografts = test: In vivo efficacy study, TOV112D xenograft; set-up: species or system BALB/c nude mice; conditions: day 14
Procedure: as §1

COV434 xenografts = test: In vivo efficacy study, COV434 xenograft; set-up: species or system BALB/c nude mice
[1] = mouse, in vivo, po
Procedure: as §1

[2] = Plasma exposure in xenograft efficacy studies; format: in vivo, BALB/c nude mice; conditions: plasma collected 5 minutes prior or 3 hours post final dose, all models
Procedure: as §1

COV434 = test: Time course annexin and cell cycle, COV434; format: cell-based; conditions: COV434, after 3 days through day 14
Procedure: (§2) 1×10^5 harvested cells were plated in triplicate in 96-well format and stained with Millipore's Guava Nexin reagent for 1 hr at RT. Percentages of cells undergoing apoptosis were measured using Millipore's Guava EasyCyte Flow Cytometer. For cell cycle analysis, 5×10^5 cells were plated in a 96 well plate, washed once with PBS, and fixed overnight in ice-cold 70% ethanol at 4° C. Fixed cells were washed with PBS, then stained with Millipore's Guava Cell Cycle Reagent and data obtained from EasyCyte Flow Cytometer.

Bin-67 = test: Time course annexin and cell cycle, Bin-67; format: cell-based; conditions: Bin-67, apoptotic events as early as day 4
Procedure: as §2, with “Percentages” for “1×10^5 harvested cells were plated in triplicate in 96-well format and stained with Millipore's Guava Nexin reagent for 1 hr at RT. Percentages”

JHOS-2 = test: Time course annexin and cell cycle, JHOS-2; format: cell-based; conditions: JHOS-2 (wild type for both SMARCA2 and SMARCA4)
Procedure: as §2, with “Percentages” for “1×10^5 harvested cells were plated in triplicate in 96-well format and stained with Millipore's Guava Nexin reagent for 1 hr at RT. Percentages”

SMARCA2 = SMARCA2 expression upon treatment in SCCOHT cell lines; format: cell-based; conditions: over time
H3K27me3 = H3K27me3 ELISA in xenograft tumors; conditions: tumors harvested at study endpoints, ratio of H3K27me3 to total H3 by ELISA

Compound: CCN(c1cc(-c2ccc(CN3CCOCC3)cc2)cc(C(=O)NCc2c(C)cc(C)[nH]c2=O)c1C)C1CCOCC1 [tazemetostat]
- oral bioavailability (Oral bioavailability): orally bioavailable
- tumor growth inhibition (TGI) (Bin-67 xenografts; 125 mg/kg orally BID): 56%
- tumor growth inhibition (TGI) (Bin-67 xenografts; 250 mg/kg orally BID): 87%
- average tumor volume (Bin-67 xenografts; 500 mg/kg orally BID): 41 mm^3
- tumor response (Bin-67 xenografts; 500 mg/kg orally BID): regressions in all 10 animals
- tumor growth inhibition (TGI) (TOV112D xenografts; 125 mg/kg orally BID): 28%
- tumor growth inhibition (TGI) (TOV112D xenografts; 500 mg/kg orally BID): 35%
- tumor growth inhibition (TGI) (COV434 xenografts; 125 mg/kg orally BID, day 28): 74%
- tumor regrowth (COV434 xenografts; 500 mg/kg cohort, 28 days after dose cessation): not observed
- animals having unmeasurable tumors (COV434 xenografts; 500 mg/kg orally BID, day 28): 7 of the 8
- tumor response (COV434 xenografts; 500 mg/kg orally BID, day 28): complete regressions
- tolerability, bodyweight loss and clinical observations [1]: well tolerated with minimal bodyweight loss and no other clinical observations
- systemic exposure in plasma [2]: Dose-dependent systemic exposure
- cell cycle and apoptosis (COV434): increase in the percentage of cells in sub-G1 phase and a concomitant reduction in G2 phase
- cell cycle and apoptosis (Bin-67): more modest increase in the percentage of sub-G1 cells
- cell cycle and apoptosis (JHOS-2): did not show any cell cycle changes or apoptotic events
- SMARCA2 expression (SMARCA2): time-dependent increases in SMARCA2 expression
- H3K27me3 levels in tumors (H3K27me3): robust inhibition
